Measured values: publication PMC9410420, “Novel Labdane Diterpenes-Based Synthetic Derivatives: Identification of a Bifunctional Vasodilator That Inhibits CaV1.2 and Stimulates KCa1.1 Channels” (Marine Drugs, 2022)
Like-named read-outs stand apart in the source and are kept apart here.

Key:
rat aorta rings = experiment: Phenylephrine-induced contraction of rat aorta rings (pharmaco-mechanical coupling); details: Rattus norvegicus, 0.3 µM phenylephrine
Experimental: The abdominal aorta was gently cleaned of adipose and connective tissues and cut into 3-mm wide rings. These were mounted in organ baths between two parallel, L-shaped, stainless-steel hooks, with one fixed in place and the other connected to an isometric transducer. Rings were allowed to equilibrate for 60 min in modified Krebs-Henseleit solution (composition in mM: 118 NaCl, 4.75 KCl, 1.19 KH2PO4, 1.19 MgSO4, 25 NaHCO3, 11.5 glucose, 2.5 CaCl2, gassed with a 95% O2–5% CO2 gas mixture to create a pH of 7.4) under a passive tension of 1 g. During this equilibration period, the solution was changed every 15 min. Isometric tension was recorded using a digital PowerLab data acquisition system (PowerLab 8/30; ADInstruments). Ring viability was assessed by recording the response to 0.3 µM phenylephrine and 60 mM KCl. Where needed, the endothelium was removed by gently rubbing the lumen of the ring with a forceps tip. This procedure was validated by adding 10 µM acetylcholine at the plateau of phenylephrine-induced contraction; a relaxation greater than 70% or less than 10% denoted the presence or absence of functional endothelium, respectively.
Aorta rings were pre-contracted pharmaco-mechanically using 0.3 µM phenylephrine and electromechanically using 25–30 mM or 60 mM KCl. Once the contraction reached a plateau, the compound was added cumulatively into the organ bath. […] The response was calculated as the percentage of phenylephrine- or KCl-induced contraction (taken as 100%).

KCa1.1 channel = biological target: T1, KCa1.1 channel (Rattus norvegicus, UniProt Q62976); experiment: Whole-cell patch-clamp, K+ current through KCa1.1 channels (IKCa1.1) in tail artery myocytes; format: cell-based; details: 3, 10 and 30 µM cumulative; membrane potential 30–70 mV, Vh −40 mV
T1 construct: IKCa1.1 measured in tail artery myocytes; endogenous in cells; host or cells: freshly isolated rat tail main artery smooth muscle cells
Experimental: The tail main artery was dissected free of its connective tissue, and smooth muscle cells were freshly isolated under the following conditions. […] This solution was gently bubbled and stirred with a 95% O2–5% CO2 gas mixture, as previously described. Cells stored in 0.05 mM Ca^2+ external solution containing 20 mM taurine and 0.5 mg/mL BSA at 4 °C under normal air were used for experiments within two days after isolation.
An Axopatch 200B patch-clamp amplifier (Molecular Devices Corporation, Sunnyvale, CA, USA) was used to generate and apply voltage pulses to the clamped cells and record the corresponding membrane currents. Recording electrodes were pulled from borosilicate glass capillaries (WPI, Berlin, Germany) and fire-polished to obtain a pipette resistance of 2–4 MΩ, when filled with an internal solution. At the beginning of each experiment, the junction potential between the pipette and bath solution was electronically adjusted to zero. […]
K^+ current through the KCa1.1 channel (IKCa1.1) (registration period 500 ms) was measured over a range of test potentials, from −20 mV to 70 mV from a Vh of −40 mV. […] The current–voltage relationships were calculated based on the values recorded during each test pulse (leakage corrected offline). […]

[1] = tested on: Langendorff perfused rat heart; experiment: Langendorff perfused rat heart (LVP, CPP, ECG); details: for QRS (intraventricular conduction time): control 13.4 ± 0.7; for PQ (atrioventricular conduction time): control 37.8 ± 1.8; for QTc (corrected QT): control 72.97 ± 1.7; for RR (cycle length): control 231.4 ± 7.8; for HR (frequency): control 261.9 ± 9.6
Experimental: Spontaneously beating heart was retrogradely perfused via the aorta at a constant perfusion flow in a Langendorff apparatus (Radnoti, Dublin, Ireland) with a physiological salt solution containing (mM) NaCl 118, KCl 4.7, CaCl2 2.5, MgSO4 1.2, NaHCO3 25, KH2PO4 1.2, glucose 11.5, Na pyruvate 2, and EDTA 0.5, and bubbled with a 95% O2−5% CO2 gas mixture (pH 7.4), and kept at 37 °C, as described elsewhere. Hearts were allowed to equilibrate for at least 20 min before 7 exposure. Heart contractility was measured as left ventricle developed pressure (LVDP) using a deionized water-filled latex balloon, connected to a pressure transducer (BLPR, WPI, Berlin, Germany) and inserted into the left ventricular cavity through the mitral valve. A pressure transducer (BLPR, WPI, Berlin, Germany) was placed in the inflow line, to record coronary perfusion pressure (CPP), a measure of coronary vascular resistance. Two steel electrodes, one positioned on the left atrium and the other on the apex of the heart, were used to record the surface electrocardiogram. Heart rate (HR) and RR (cycle length), PQ (atrioventricular conduction time), QRS (intraventricular conduction time), and QT (ventricular depolarization and repolarization) intervals were measured. The digital PowerLab data acquisition system (PowerLab 8/30; ADInstruments, Castle Hill, Australia) and Chart Pro for Windows software v. 7.3.7 (PowerLab; ADInstruments, Castle Hill, Australia) were used to record and analyze LVP, CPP, and ECG. As the QT interval is affected by HR changes (e.g., it shortens when HR increases), Bazett's formula normalized to average rat RR (QTc = QT/(RR/f)1/2) was routinely used to correct it, thus avoiding confounding effects. In this study, “f” (the normalization factor according to the basal RR duration) was 231.4 ms, as this was the average cardiac cycle length.

T1 sequence (Q62976 whole entry): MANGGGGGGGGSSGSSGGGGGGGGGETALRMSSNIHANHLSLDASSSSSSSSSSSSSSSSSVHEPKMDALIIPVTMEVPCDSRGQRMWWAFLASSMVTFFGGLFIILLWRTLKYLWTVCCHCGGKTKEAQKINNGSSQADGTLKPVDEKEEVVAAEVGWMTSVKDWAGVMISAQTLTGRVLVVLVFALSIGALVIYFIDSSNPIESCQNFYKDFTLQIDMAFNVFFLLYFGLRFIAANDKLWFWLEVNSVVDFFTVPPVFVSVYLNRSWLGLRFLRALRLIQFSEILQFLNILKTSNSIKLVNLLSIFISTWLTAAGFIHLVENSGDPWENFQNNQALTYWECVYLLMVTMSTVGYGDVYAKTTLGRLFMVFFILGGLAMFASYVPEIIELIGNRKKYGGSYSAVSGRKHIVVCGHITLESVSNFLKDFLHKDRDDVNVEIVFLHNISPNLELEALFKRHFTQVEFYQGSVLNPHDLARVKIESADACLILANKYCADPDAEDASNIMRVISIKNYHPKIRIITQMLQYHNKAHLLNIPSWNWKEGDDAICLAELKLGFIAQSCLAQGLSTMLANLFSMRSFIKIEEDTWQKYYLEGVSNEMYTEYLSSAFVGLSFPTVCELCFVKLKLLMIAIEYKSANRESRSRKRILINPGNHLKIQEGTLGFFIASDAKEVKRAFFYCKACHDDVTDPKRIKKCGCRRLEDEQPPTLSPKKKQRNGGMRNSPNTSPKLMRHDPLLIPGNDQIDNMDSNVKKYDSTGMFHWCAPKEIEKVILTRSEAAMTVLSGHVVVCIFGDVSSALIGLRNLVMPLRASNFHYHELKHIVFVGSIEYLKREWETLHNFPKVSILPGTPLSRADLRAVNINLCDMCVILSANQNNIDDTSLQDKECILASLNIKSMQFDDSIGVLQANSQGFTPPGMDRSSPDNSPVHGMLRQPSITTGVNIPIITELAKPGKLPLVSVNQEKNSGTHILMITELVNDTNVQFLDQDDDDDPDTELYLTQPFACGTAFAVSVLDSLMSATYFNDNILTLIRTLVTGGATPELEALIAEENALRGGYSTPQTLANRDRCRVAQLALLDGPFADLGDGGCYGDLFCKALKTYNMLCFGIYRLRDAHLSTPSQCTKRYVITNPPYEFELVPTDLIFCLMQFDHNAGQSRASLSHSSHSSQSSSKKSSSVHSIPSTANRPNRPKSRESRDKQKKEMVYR
T1 sequence (P97678 whole entry partner): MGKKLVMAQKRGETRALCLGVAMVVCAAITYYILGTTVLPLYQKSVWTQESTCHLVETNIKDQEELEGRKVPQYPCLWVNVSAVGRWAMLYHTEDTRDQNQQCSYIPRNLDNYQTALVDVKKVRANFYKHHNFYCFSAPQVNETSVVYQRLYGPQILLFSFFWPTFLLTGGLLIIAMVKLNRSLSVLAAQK

## CC1(C)CCC[C@]2(C)[C@@H](CC(=O)Nc3ccccc3-n3cccc3)[C@](C)(O)CC[C@@H]12 [Compound 7]
Rat aorta rings; endothelium-denuded rat aorta rings, read-out: Emax (percent maximal inhibition), phenylephrine-induced contraction, −Endothelium
  Emax: ≤ 60%
Rat aorta rings; endothelium-intact rat aorta rings, read-out: Emax (percent maximal inhibition), phenylephrine-induced contraction, +Endothelium
  Emax: 8.6 ± 9.3%
KCa1.1 channel
  Effect on IKCa1.1: significant concentration-dependent stimulation of the current
[1]; 1 µM
  QRS (intraventricular conduction time): 13.6 ± 0.5 ms
  PQ (atrioventricular conduction time): 37.2 ± 2.0 ms
  QTc (corrected QT): 71.59 ± 0.8 ms
  RR (cycle length): 230.8 ± 7.4 ms
  HR (frequency): 261.8 ± 9.4 bpm
[1]; 3 µM
  QRS (intraventricular conduction time): 14.0 ± 0.6 ms
  PQ (atrioventricular conduction time): 37.4 ± 1.9 ms
  QTc (corrected QT): 72.65 ± 1.3 ms
  RR (cycle length): 231.8 ± 7.1 ms
  HR (frequency): 256.9 ± 8.3 bpm
[1]; 10 µM
  QRS (intraventricular conduction time): 13.9 ± 0.6 ms
  PQ (atrioventricular conduction time): 39.0 ± 1.9 ms
  QTc (corrected QT): 73.31 ± 1.2 ms
  RR (cycle length): 236.4 ± 7.1 ms
  HR (frequency): 255.3 ± 8.0 bpm
[1]; 30 µM
  QRS (intraventricular conduction time): 15.2 ± 0.8 ms
  PQ (atrioventricular conduction time): 42.2 ± 2.7 ms
  QTc (corrected QT): 75.13 ± 1.7 ms
  RR (cycle length): 249.8 ± 10.7 ms
  HR (frequency): 242.8 ± 11.5 bpm
[1]; 1–30 µM, n = 5
  Effect on coronary perfusion pressure (CPP): significantly decreased CPP
  Effect on left ventricular pressure (LVP): leaving LVP unaltered
